Assay results from ChEMBL document CHEMBL4765464, “Discovery of BMS-986144, a Third-Generation, Pan-Genotype NS3/4A Protease Inhibitor for the Treatment of Hepatitis C Virus Infection” (J Med Chem, 2020).

Assays:
[1] = Inhibition of recombinant full length NS3/4A R155K mutant protease in Hepatitis C virus subtype 1a replicon infected in human HuH7 cells preincubated for 3 days followed by substrate addition and measured after 2 hrs by renilla luciferase reporter gene assay; assay type: cell-based; settings: Huh-7
[2] = Toxicity in rabbit assessed as effect on cardiovascular system by telemetry; set-up: species or system Oryctolagus cuniculus; settings: in vivo
[3] = AUC in cynomolgus monkey at 3 mg/kg, po or 1 mg/kg, iv; assay type: ADME, organism-based, Macaca fascicularis; set-up: dose 3 mg/kg; settings: in vivo
[4] = Inhibition of recombinant full length NS3/4A protease in Hepatitis C virus subtype 1b replicon infected in human HuH7 cells preincubated for 3 days followed by substrate addition and measured after 2 hrs by renilla luciferase reporter gene assay; assay type: cell-based; settings: Huh-7
[5] = Half-life in rat at 5 mg/kg, po or 1 mg/kg, iv; assay type: ADME, organism-based; settings: in vivo
[6] = AUC in dog at 3 mg/kg, po or 1 mg/kg, iv; assay type: ADME, organism-based, Canis lupus familiaris; set-up: dose 3 mg/kg; settings: in vivo
[7] = Half-life in dog at 3 mg/kg, po or 1 mg/kg, iv; assay type: ADME, organism-based, Canis lupus familiaris; settings: in vivo
[8] = AUC in rat at 5 mg/kg, po or 1 mg/kg, iv; assay type: ADME, organism-based; set-up: dose 5 mg/kg; settings: in vivo
[9] = Oral bioavailability in dog at 3 mg/kg; assay type: ADME, organism-based, Canis lupus familiaris; settings: in vivo
[10] = Inhibition of recombinant full length NS3/4A D168V mutant protease in Hepatitis C virus subtype 1b replicon infected in human HuH7 cells preincubated for 3 days followed by substrate addition and measured after 2 hrs by renilla luciferase reporter gene assay; assay type: cell-based; settings: Huh-7
[11] = Cytotoxicity against human Huh-7 cells assessed as reduction in cell viability; assay type: cell-based
[12] = Toxicity in rat assessed as histopathological changes measured upto 4 days; settings: in vivo, 96 h, time <=4 day
[13] = Oral bioavailability in rat at 5 mg/kg; assay type: ADME, organism-based; settings: in vivo
[14] = Drug concentration in rat liver at 5 mg/kg, po measured upto 24 hrs; assay type: ADME, organism-based; settings: read-out: Ct
Cytochrome P450 3A4 [15] = target: T1, Cytochrome P450 3A4 (Homo sapiens, UniProt P08684); experiment: […] of CYP3A4 in human liver microsome in presence of midazolam as substrate preincubated for upto 30 mins in presence of NADPH followed by addition of substrate by LC-MS/MS analysis; assay type: ADME; settings: microsomes
[16] = Inhibition of recombinant full length NS3/4A protease in Hepatitis C virus subtype 3a replicon infected in human HuH7 cells preincubated for 3 days followed by substrate addition and measured after 2 hrs by renilla luciferase reporter gene assay; assay type: cell-based; settings: Huh-7
Cytochrome P450 3A4 [17] = target: T1, Cytochrome P450 3A4; experiment: Inhibition of human CYP3A4 in human pooled liver microsomes in presence of midazolam as substrate preincubated for 30 mins in presence of NADPH followed by addition of substrate by LC-MS/MS analysis; assay type: ADME
[18] = Clearance in cynomolgus monkey at 3 mg/kg, po or 1 mg/kg, iv; assay type: ADME, organism-based, Macaca fascicularis; settings: in vivo
[19] = Drug concentration in rat plasma at 5 mg/kg, po measured upto 24 hrs; assay type: ADME, organism-based; settings: read-out: Ct
[20] = Clearance in dog at 3 mg/kg, po or 1 mg/kg, iv; assay type: ADME, organism-based, Canis lupus familiaris; settings: in vivo
[21] = Toxicity in rat assessed as effect on cardiovascular system by telemetry; settings: in vivo
Cytochrome P450 3A4 [22] = target: T1, Cytochrome P450 3A4; experiment: Inhibition of human CYP3A4 in human pooled liver microsomes in presence of midazolam as substrate preincubated for 0 mins in presence of NADPH followed by addition of substrate by LC-MS/MS analysis; assay type: ADME
[23] = Clearance in rat at 5 mg/kg, po or 1 mg/kg, iv; assay type: ADME, organism-based; settings: in vivo
Cytochrome P450 3A4 [24] = target: T1, Cytochrome P450 3A4; experiment: Inhibition of human CYP3A4 in human pooled liver microsomes at 0.002 to 40 uM in presence of midazolam as substrate preincubated in presence of NADPH followed by addition of substrate by LC-MS/MS analysis; assay type: ADME; settings: TDE = time-dependent effect, dose 0.002-40 µM, time <=30 min
[25] = Drug concentration in dog plasma at 3 mg/kg, po measured upto 24 hrs; assay type: ADME, organism-based, Canis lupus familiaris; settings: read-out: Ct
[26] = Inhibition of recombinant full length NS3/4A protease in Hepatitis C virus subtype 3a infected in human HuH7 cells using Ac-Asp-Glu-Asp (EDANS)-Glu-Glu-Abu-(COO) Ala-Ser-Lys (DABCYL)-NH2 as substrate by FRET assay; settings: Huh-7
[27] = Genotoxicity in Salmonella typhimurium by AMES test; assay type: toxicity; settings: salmonella enterica subsp. enterica serovar typhimurium
CHO = experiment: Genotoxicity in Chinese Hamster CHO cells assessed as non clastogenicity by micronucleus assay; assay type: toxicity, cell-based, Cricetulus griseus
[28] = Metabolic stability in human liver microsomes assessed as half-life incubated for 5 to 45 mins in presence of NADPH by LC-MS analysis; assay type: ADME, Microsome; settings: time 5-45 min
[29] = Oral bioavailability in cynomolgus monkey at 3 mg/kg; assay type: ADME, organism-based, Macaca fascicularis; settings: in vivo
[30] = Toxicity in rat assessed as clinical effect measured upto 4 days; settings: in vivo, 96 h, time <=4 day
[31] = Half-life in cynomolgus monkey at 3 mg/kg, po or 1 mg/kg, iv; assay type: ADME, organism-based, Macaca fascicularis; settings: in vivo
[32] = Inhibition of recombinant full length NS3/4A protease in Hepatitis C virus subtype 1a replicon infected in human HuH7 cells preincubated for 3 days followed by substrate addition and measured after 2 hrs by renilla luciferase reporter gene assay; assay type: cell-based; settings: Huh-7
Cytochrome P450 3A4 [33] = target: T1, Cytochrome P450 3A4; experiment: Inhibition of human CYP3A4 in human pooled liver microsomes in presence of testosterone as substrate preincubated for 0 mins in presence of NADPH followed by addition of substrate by LC-MS/MS analysis; assay type: ADME
[34] = Cytotoxicity against human MT2 cells assessed as reduction in cell viability; assay type: cell-based
[35] = Inhibition of recombinant full length NS3/4A protease in Hepatitis C virus subtype 2a replicon infected in human HuH7 cells preincubated for 3 days followed by substrate addition and measured after 2 hrs by renilla luciferase reporter gene assay; assay type: cell-based; settings: Huh-7
Cytochrome P450 3A4 [36] = target: T1, Cytochrome P450 3A4; experiment: Inhibition of human CYP3A4 in human pooled liver microsomes in presence of testosterone as substrate preincubated for 30 mins in presence of NADPH followed by addition of substrate by LC-MS/MS analysis; assay type: ADME
Cytochrome P450 3A4 [37] = target: T1, Cytochrome P450 3A4; experiment: Inhibition of human CYP3A4 in human pooled liver microsomes at 0.002 to 40 uM in presence of testosterone as substrate preincubated in presence of NADPH followed by addition of substrate by LC-MS/MS analysis; assay type: ADME; settings: TDE = time-dependent effect, dose 0.002-40 µM, time <=30 min
[38] = Drug concentration in rat plasma at 15 mg/kg, po measured upto 24 hrs; assay type: ADME, organism-based; settings: read-out: Ct
[39] = Oral bioavailability in rat at 15 mg/kg; assay type: ADME, organism-based; settings: in vivo
[40] = Ratio of drug concentration in liver to plasma in rat at 15 mg/kg, po measured upto 24 hrs; assay type: ADME, organism-based; settings: liver and plasma
[41] = Clearance in rat at 5 mg/kg, iv; assay type: ADME, organism-based; settings: in vivo
[42] = Half life in rat at 5 mg/kg, iv; assay type: ADME, organism-based; settings: in vivo
[43] = AUC (0 to 24 hrs) in rat at 15 mg/kg, po; assay type: ADME, organism-based; set-up: time < 24 hr, route oral, dose 15 mg/kg; settings: in vivo
[44] = Metabolic stability in rat liver microsomes assessed as parent compound remaining after 10 mins in presence of NADPH by LC-MS analysis; assay type: ADME, Microsome; settings: read-out: Stabilty
[45] = Drug concentration in rat liver at 15 mg/kg, po measured upto 24 hrs; assay type: ADME, organism-based; settings: read-out: Ct
[46] = Volume of distribution in rat at 15 mg/kg, po or 5 mg/kg, iv; assay type: ADME, organism-based; settings: in vivo
[47] = Cmax in rat at 15 mg/kg, po; assay type: ADME, organism-based; set-up: route oral, dose 15 mg/kg; settings: in vivo

T1 sequence (P08684 whole entry): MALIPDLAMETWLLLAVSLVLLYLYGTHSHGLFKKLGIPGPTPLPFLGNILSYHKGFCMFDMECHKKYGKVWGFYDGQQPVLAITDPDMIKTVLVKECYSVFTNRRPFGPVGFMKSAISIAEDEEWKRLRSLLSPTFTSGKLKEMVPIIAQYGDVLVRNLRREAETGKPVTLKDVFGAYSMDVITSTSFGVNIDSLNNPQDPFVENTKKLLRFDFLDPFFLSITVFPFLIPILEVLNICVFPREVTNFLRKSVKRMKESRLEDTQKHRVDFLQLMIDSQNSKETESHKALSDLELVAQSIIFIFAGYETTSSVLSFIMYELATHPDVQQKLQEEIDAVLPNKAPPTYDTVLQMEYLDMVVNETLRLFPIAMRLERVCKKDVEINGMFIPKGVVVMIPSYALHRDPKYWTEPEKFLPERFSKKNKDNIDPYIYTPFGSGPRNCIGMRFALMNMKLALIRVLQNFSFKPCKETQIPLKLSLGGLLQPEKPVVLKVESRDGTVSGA

With [2H]C([2H])([2H])Oc1cc2ccnc(O[C@@H]3C[C@H]4C(=O)N[C@]5(C(=O)NS(=O)(=O)C6(C)CC6)C[C@H]5/C=C\CC[C@@H](C)C[C@@H](CC)[C@H](NC(=O)OC(C)(C)C(F)(F)F)C(=O)N4C3)c2cc1F as the compound, how does the EC50 [1] read?
The EC50 was 8 nM.

And the Activity [2]?
The Activity was “Non-Toxic”.

And the AUC [3]?
The AUC was 0.19 µM·h.

And the EC50 [4]?
The EC50 was 0.7 nM.

What about the half-life [5] of the same compound?
The half-life was 13.4 h.

And the AUC [6]?
The AUC was 39.8 µM·h.

And the half-life [7]?
The half-life was 8.7 h.

What about the AUC [8] of the same compound?
Its AUC is 310 µM·h.

What about the bioavailability [9] of the same compound?
Its bioavailability is 71%.

And the EC50 [10]?
The EC50 was 5.8 nM.

And the CC50 [11]?
Its CC50 is 25000 nM.

What about the Activity [12] of the same compound?
The Activity was “Non-Toxic”.

And the bioavailability [13]?
Its bioavailability is 57%.

And the concentration at 24 h [14]?
Its concentration at 24 h is 4160 nM.

And the Activity (Cytochrome P450 3A4 [15])?
The Activity was “Not Active”.

What about the EC50 [16] of the same compound?
Its EC50 is 12 nM.

What about the IC50 (Cytochrome P450 3A4 [17]) of the same compound?
The IC50 was 16400 nM.

What about the clearance [18] of the same compound?
The clearance was 12.1 mL/min/kg.

And the concentration at 24 h [19]?
Its concentration at 24 h is 3850 nM.

And the clearance [20]?
The clearance was 1.1 mL/min/kg.

And the Activity [21]?
Its Activity is “Non-Toxic”.

And the IC50 (Cytochrome P450 3A4 [22])?
The IC50 was > 40000 nM.

And the clearance [23]?
Its clearance is 0.18 mL/min/kg.

And the “inhibition (INH)” value (Cytochrome P450 3A4 [24])?
Its value is “Tde”.

And the concentration at 24 h [25]?
The concentration at 24 h was 163 nM.

And the IC50 [26]?
The IC50 was 4.8 nM.

And the Activity [27]?
The Activity was “Non-Toxic”.

What about the Activity (CHO) of the same compound?
Its Activity is “Non-Toxic”.

And the half-life [28]?
The half-life was 0.55 h.

And the bioavailability [29]?
The bioavailability was 23.9%.

And the Activity [30]?
The Activity was “Non-Toxic”.

What about the half-life [31] of the same compound?
The half-life was 1.2 h.

And the EC50 [32]?
Its EC50 is 2.3 nM.

And the IC50 (Cytochrome P450 3A4 [33])?
Its IC50 is > 40000 nM.

And the CC50 [34]?
The CC50 was 34000 nM.

And the EC50 [35]?
Its EC50 is 1 nM.

What about the IC50 (Cytochrome P450 3A4 [36]) of the same compound?
Its IC50 is > 33000 nM.

And the “inhibition (INH)” value (Cytochrome P450 3A4 [37])?
The value was “Tde”.

With COc1cnc(O[C@@H]2C[C@H]3C(=O)N[C@]4(C(=O)NS(=O)(=O)C5CC5)C[C@H]4/C=C\CC[C@@H](C)C[C@@H](C)[C@H](NC(=O)OC(C)(C)C(F)(F)F)C(=O)N3C2)c2ccccc12 as the compound, how does the concentration at 24 h [38] read?
Its concentration at 24 h is 14 nM.

What about the bioavailability [39] of the same compound?
The bioavailability was 15%.

And the Kp at 24 h [40]?
Its Kp at 24 h is 34.

What about the EC50 [1] of the same compound?
The EC50 was 2.2 nM.

And the clearance [41]?
The clearance was 4.2 mL/min/kg.

And the EC50 [4]?
Its EC50 is 0.5 nM.

And the half-life [42]?
Its half-life is 2.7 h.

And the EC50 [10]?
The EC50 was 5.5 nM.

And the AUC(0-t) at 24 h [43]?
The AUC(0-t) at 24 h was 11.7 µM·h.

What about the remaining at 10 min [44] of the same compound?
The remaining at 10 min was 95%.

What about the EC50 [16] of the same compound?
The EC50 was 2 nM.

And the concentration at 24 h [45]?
The concentration at 24 h was 480 nM.

And the Vd [46]?
The Vd was 0.58 L/kg.

What about the IC50 [26] of the same compound?
The IC50 was 0.9 nM.

And the half-life [28]?
Its half-life is 0.198 h.

And the Cmax [47]?
The Cmax was 1780 nM.

And the EC50 [32]?
The EC50 was 0.5 nM.

And the EC50 [35]?
The EC50 was 0.8 nM.
